Counter-ions that a name gives are not always drawn.
Key:
[1] = test system: femoral artery; test: Maximum increase in femoral arterial blood flow in anesthetized dogs, cumulative i.v. dosing (Experimental Example 3); assay type: in vivo, dog; conditions: maximum during 60 min
Description: (§1) Adult dogs (one group consisting of 5 dogs) were intravenously given the test compound under anesthesia and artificial respiration successively at intervals of 60 minutes so that the dose can be 10, 30, 100, 300 and 1000 μg/kg body weight, and the blood flow of femoral artery was measured with a time course. […] An increase in the femoral arterial blood flow was calculated by subtracting the blood flow before the administration of the first dose of test compound as the standard value (the base line) from that of maximum during an interval of 60 minutes after each administration.

[2] = test system: femoral artery; test: Increase in femoral arterial blood flow in anesthetized dogs, cumulative i.v. dosing (Experimental Example 1); assay type: in vivo, dog; conditions: 60 min after administration
Description: as §1, with “a dog)” for “5 dogs)”, “100 and” for “100,”, “300” for “300 and 1000”, “that” for “that of maximum during an interval of”

[3] = test system: hind leg edema; test: Hind leg frostbite model: model of Raynaud's disease (Experimental Example 7); assay type: in vivo, male SD rat; conditions: for % Inhibition of edema / Edema: 30 mg/kg, orally twice a day for 6 days; for edema inhibition activity: rat hind leg frostbite model, in words
Description: (Hind leg frostbite model: Model of Raynaud's disease)
Left hind leg of male SD rat (one group: 3 to 5 rats) was dipped in dry ice-ethanol for 2 seconds, and after 30 minutes, 30 mg/kg of a test compound dissolved in pure water was administered to the rat and then orally administered twice a day for 6 days continuously. At the final day of the experiment, volumes of both hind legs (below ankle joint) of the rat were measured by a water substitution method and an edema ratio was calculated from the following equation. Also, an inhibition ratio of the test compound administered group was obtained by comparing the edema ratio of the group in which the test compound was not administered. [formula]
The present model is disclosed, for example, in Hayashi et al, "Pharmacological Studies on Niceritrol (10), The Effects on Experimental Models of Peripherally Circulatory Insufficiency", Applied Pharmacology, 24 (6): 859-864 (1982), noting particularly the section "2. Effect on an experimental frostbite model" on page 860.

[4] = test system: arterial blood pressure; test: Change of arterial blood pressure in anesthetized dogs (Experimental Example 4); conditions: 100 μg/kg i.v.
Description: (§2) Each test compound was intravenously administered to adult dogs (one group consisting of 2 or 4 dogs) under anesthesia and artificial respiration at a dose of 100 μg/kg body weight. Femoral arterial blood flow, vertebral arterial blood flow and arterial blood pressure were measured 1, 3, 5, 10, 20 and 30 minutes after the administration. The femoral arterial blood flow and vertebral arterial blood flow were measured with an electromagnetic blood flowmeter (manufactured by Nihon Koden, MFV-2100, trade name) through a flow probe attached to the femoral artery or vertebral artery. The arterial blood pressure was measured with a pressure transducer (manufactured by Millar, MICRO-TIP, Model SPC-350) through a catheter attached to the brachial artery.
(§3) Changes of the femoral arterial blood flow, vertebral arterial blood flow and arterial blood pressure were estimated by comparing the values measured before and after the administration of the test compound.

[5] = test system: femoral artery; test: Change of femoral arterial blood flow in anesthetized dogs (Experimental Example 4); assay type: in vivo, dog; conditions: 100 μg/kg i.v.; for AUC60 of the femoral arterial blood flow: 60 minutes after administration; for Increase in femoral arterial blood flow: 10 minutes after the administration
Description: as §2, §3

[6] = test system: vertebral artery; test: Change of vertebral arterial blood flow in anesthetized dogs (Experimental Example 4); conditions: 100 μg/kg i.v.
Description: as §2, §3

[7] = G and H: one minute after, in words

Row | Structure (SMILES) | Increase in femoral arterial blood flow ([1]; 30 μg/kg i.v.) [mL/min] | Increase in femoral arterial blood flow ([1]; 100 μg/kg i.v.) [mL/min] | Increase in femoral arterial blood flow ([1]; 300 μg/kg i.v.) [mL/min] | Increase in femoral arterial blood flow ([1]; 1000 μg/kg i.v.) [mL/min] | Increase in femoral arterial blood flow ([2]; 10 μg/kg i.v.) [mL/min] | Increase in femoral arterial blood flow ([2]; 30 μg/kg i.v.) [mL/min] | Increase in femoral arterial blood flow ([2]; 100 μg/kg i.v.) [mL/min] | Increase in femoral arterial blood flow ([2]; 300 μg/kg i.v.) [mL/min] | Arterial Blood Pressure change (side effects) ([4]; 1 min) | Arterial Blood Pressure change (side effects) ([4]; 3 min) | Arterial Blood Pressure change (side effects) ([4]; 5 min) | Arterial Blood Pressure change (side effects) ([4]; 10 min) | Arterial Blood Pressure change (side effects) ([4]; 20 min) | Arterial Blood Pressure change (side effects) ([4]; 30 min) | Femoral Arterial Blood Flow change ([5]; 3 min) | Femoral Arterial Blood Flow change ([5]; 5 min) | Femoral Arterial Blood Flow change ([5]; 10 min) | Femoral Arterial Blood Flow change ([5]; 20 min) | Femoral Arterial Blood Flow change ([5]; 30 min) | AUC60 of the femoral arterial blood flow [5] [mL] | further results
1 | Cc1ccc([C@H]2Sc3cc(C)ccc3N(CCN(C)C)C(=O)[C@H]2O)cc1 [B] | 16.4 | 41.4 | 70.2 | 79.2 | 22 | 28 | 48 | 74 | – | – | – | – | – | – | – | – | – | – | – | – | Increase in femoral arterial blood flow ([1]; 10 μg/kg i.v.): 10.4 mL/min
2 | CNCCN1C(=O)[C@@H](OC(C)=O)[C@@H](c2ccc(C)cc2)Sc2cc(C)ccc21 [C] | 6.8 | 25.6 | 44.6 | 49.0 | 6 | 19 | 50 | 65 | – | – | – | – | – | – | – | – | – | – | – | – | –
3 | CC(=O)O[C@@H]1C(=O)N(CCN(C)C)c2ccc(CO)cc2S[C@@H]1c1ccc(C)cc1 [Compound E, (-)-cis-2-(4-methylphenyl)-3-acetoxy-5-[2-(dimethylamino)ethyl]-8-hydroxymethyl-2,3-dihydro-1,5-benzothiazepin-4(5H)-one oxalate] | 15.6 | 55.6 | 69.2 | 68.6 | – | 15 | 37 | 36 | – | – | – | – | – | – | – | – | – | – | – | – | –
4 | Clc1ccccc1CN1CCc2sccc2C1 [Compound K, ticlopidine] | – | – | – | – | – | – | – | – | – | – | – | – | – | – | – | – | – | – | – | – | % Inhibition of edema [3]: -9%; Edema [3]: 48 ± 2%; edema inhibition activity [3]: did not show any edema inhibition activity
5 | CC(=O)Oc1ccccc1C(=O)O [Compound L, acetyl salicylic acid] | – | – | – | – | – | – | – | – | – | – | – | – | – | – | – | – | – | – | – | – | % Inhibition of edema [3]: -25%; Edema [3]: 55 ± 8%; edema inhibition activity [3]: did not show any edema inhibition activity
6 | CNCCN1C(=O)[C@@H](O)[C@@H](c2ccc(C)cc2)Sc2cc(C)ccc21 [D] | – | – | – | – | – | – | 11 | 35 | – | – | – | – | – | – | – | – | – | – | – | – | –
7 | COc1ccc([C@H]2Sc3ccccc3N(CCN(C)C)C(=O)[C@H]2OC(C)=O)cc1 [F] | 21.0 | 27.3 | 37.0 | – | 11 | 21 | 27 | 37 | -1.5 ΔmmHg | -0.5 ΔmmHg | 1.0 ΔmmHg | 1.5 ΔmmHg | 1.5 ΔmmHg | 2.5 ΔmmHg | 36.0 Δ ml/min | 48.0 Δ ml/min | 63.5 Δ ml/min | 64.5 Δ ml/min | 54.5 Δ ml/min | 2977.0 | Increase in femoral arterial blood flow ([1]; 10 μg/kg i.v.): 10.7 mL/min; femoral arterial blood flow increasing activity ([5]; even after 30 minutes, in words): excellent femoral arterial blood flow increasing activity; Vertebral Arterial Blood Flow change (side effects) ([6]; 1 min): -0.5 Δ ml/min; Vertebral Arterial Blood Flow change (side effects) ([6]; 3 min): -1.0 Δ ml/min; Vertebral Arterial Blood Flow change (side effects) ([6]; 5 min): -1.0 Δ ml/min; Vertebral Arterial Blood Flow change (side effects) ([6]; 10 min): 0.0 Δ ml/min; Vertebral Arterial Blood Flow change (side effects) ([6]; 20 min): 0.0 Δ ml/min; Vertebral Arterial Blood Flow change (side effects) ([6]; 30 min): 0.5 Δ ml/min
8 | CC(=O)O[C@H]1C(=O)N(CCN(C)C)c2ccc(C)cc2S[C@H]1c1ccc(C)cc1 [G, reference compound] | – | – | – | – | – | – | – | – | -11.0 ΔmmHg | -2.5 ΔmmHg | 1.5 ΔmmHg | 1.0 ΔmmHg | 1.0 ΔmmHg | 1.5 ΔmmHg | 24.0 Δ ml/min | 16.0 Δ ml/min | 9.5 Δ ml/min | 7.5 Δ ml/min | 5.0 Δ ml/min | 475.3 | effect on arterial blood pressure [4, 7]: remarkable changes; Femoral Arterial Blood Flow change ([5]; 1 min): 30.0 Δ ml/min; Increase in femoral arterial blood flow ([5]; in words): substantially disappeared; Vertebral Arterial Blood Flow change (side effects) ([6]; 1 min): 26.5 Δ ml/min; Vertebral Arterial Blood Flow change (side effects) ([6]; 3 min): 18.0 Δ ml/min; Vertebral Arterial Blood Flow change (side effects) ([6]; 5 min): 11.5 Δ ml/min; Vertebral Arterial Blood Flow change (side effects) ([6]; 10 min): 7.0 Δ ml/min; Vertebral Arterial Blood Flow change (side effects) ([6]; 20 min): 3.5 Δ ml/min; Vertebral Arterial Blood Flow change (side effects) ([6]; 30 min): 2.5 Δ ml/min; effect on vertebral arterial blood flow [6, 7]: remarkable changes
9 | COc1ccc([C@@H]2Sc3ccccc3N(CCN(C)C)C(=O)[C@@H]2OC(C)=O)cc1 [H, reference compound] | – | – | – | – | – | – | – | – | -11.5 ΔmmHg | -4.5 ΔmmHg | -2.0 ΔmmHg | -1.0 ΔmmHg | 0.0 ΔmmHg | 1.0 ΔmmHg | 34.5 Δ ml/min | 22.5 Δ ml/min | 8.0 Δ ml/min | 1.0 Δ ml/min | -1.5 Δ ml/min | 300.5 | Femoral Arterial Blood Flow change ([5]; 1 min): 38.5 Δ ml/min; Increase in femoral arterial blood flow ([5]; in words): substantially disappeared; Vertebral Arterial Blood Flow change (side effects) ([6]; 1 min): 25.5 Δ ml/min; Vertebral Arterial Blood Flow change (side effects) ([6]; 3 min): 18.0 Δ ml/min; Vertebral Arterial Blood Flow change (side effects) ([6]; 5 min): 13.5 Δ ml/min; Vertebral Arterial Blood Flow change (side effects) ([6]; 10 min): 7.5 Δ ml/min; Vertebral Arterial Blood Flow change (side effects) ([6]; 20 min): 4.5 Δ ml/min; Vertebral Arterial Blood Flow change (side effects) ([6]; 30 min): 2.0 Δ ml/min

From patent US5637582A, “Peripheral circulation improving agent” (priority 1992, dated 1997)
